Molecules are shown by their SMILES. Where a SMILES comes first, the peptide text is derived from it. Bridges are numbered along the chain shown (N, C = ends). Roman numbers before positions name the chains, in order. [ ]: non-standard residue; d: D form. ξ: configuration not given here. 1Nal = N[C@@H](Cc1cccc2ccccc12)C(=O)O; ξK = NCCCCC(N)C(=O)O; Ava = NCCCCC(=O)O Some results are limits rather than exact numbers.

This test deals with T1, EPOR (erythropoietin receptor), human recombinant, NSO cells (Homo sapiens, UniProt P19235).
T1 construct: host or cells: NSO cells
T1 sequence (P19235 25-250 limits assumed): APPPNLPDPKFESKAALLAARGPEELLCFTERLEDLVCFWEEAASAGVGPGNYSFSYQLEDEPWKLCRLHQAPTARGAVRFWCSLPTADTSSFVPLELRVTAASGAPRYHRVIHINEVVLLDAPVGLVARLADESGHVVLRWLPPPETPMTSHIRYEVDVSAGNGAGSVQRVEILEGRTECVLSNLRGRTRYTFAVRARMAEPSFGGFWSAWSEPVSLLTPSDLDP
Nature of the test: EPOR radioligand binding assay ([125I] Erythropoietin competition). The procedure: IC50 values were determined by a non-linear, least squares regression analysis using MATHIQ™ (computer software for integrating mathematical functions into new or existing software). […] Where presented, the Hill coefficient (nH), defining the slope of the competitive binding curve, was calculated using MATHIQ™.

Setting [1] is: Example 2, mimetics varied in loop, mid and C-end.
The mark [2] stands for this setting: Example 1, mimetics varied in N-end, loop and mid sequences.

Regarding `CSCC[C@@H]1NC(=O)[C@H](CCCNC(=N)N)NC(=O)C(NC(=O)[C@H](CC(C)C)NC(=O)[C@H](Cc2ccc(O)cc2)NC(=O)[C@H](CC(N)=O)NC(C)=O)CCOCC(C(=O)N[C@@H](CCCCN)C(=O)N2CCC[C@H]2C(=O)NC(CCCCNC(=O)CCCC(NC(=O)[C@@H]2CCCN2C(=O)[C@H](CCCCN)NC(=O)C2COCCC(NC(=O)[C@H](CC(C)C)NC(=O)[C@H](Cc3ccc(O)cc3)NC(=O)[C@H](CC(N)=O)NC(C)=O)C(=O)N[C@@H](CCCNC(=N)N)C(=O)N[C@@H](CCSC)C(=O)N3CCC[C@H]3C(=O)N[C@@H](Cc3ccc4ccccc4c3)C(=O)N[C@@H](C(C)C)C(=O)N2)C(=O)N[C@@H](CCCNC(=N)N)C(N)=O)C(=O)N[C@@H](CCCNC(=N)N)C(N)=O)NC(=O)[C@H](C(C)C)NC(=O)[C@H](Cc2ccc3ccccc3c2)NC(=O)[C@@H]2CCCN2C1=O` (stereo partly shown) [AC-0005-061], the Ki under setting [1] turned out to be 27.7 nM. For the setting “Example 4, sixth table”, the IC50 was 58.5 nM.
Consider `CCN[C@@H](CC(N)=O)C(=O)N[C@@H](Cc1ccc(O)cc1)C(=O)N[C@@H](CC(C)C)C(=O)NC1CCOCC(C(=O)N[C@@H](CCCCNC(=N)N)C(=O)N2CCC[C@H]2C(=O)NC(CCCC(=O)NCCCCC(NC(=O)[C@@H]2CCCN2C(=O)[C@H](CCCCNC(=N)N)NC(=O)C2COCCC(NC(=O)[C@H](CC(C)C)NC(=O)[C@H](Cc3ccc(O)cc3)NC(=O)[C@H](CC(N)=O)NC(C)=O)C(=O)N[C@@H](CCCNC(=N)N)C(=O)N[C@@H](CCSC)C(=O)N3CCC[C@H]3C(=O)N[C@@H](Cc3ccc4ccccc4c3)C(=O)N[C@@H](C(C)C)C(=O)N2)C(=O)N[C@@H](CCCNC(=N)N)C(N)=O)C(=O)N[C@@H](CCCNC(=N)N)C(N)=O)NC(=O)[C@H](C(C)C)NC(=O)[C@H](Cc2ccc3ccccc3c2)NC(=O)[C@@H]2CCCN2C(=O)[C@H](CCSC)NC(=O)[C@H](CCCNC(=N)N)NC1=O` (stereo partly shown) [AC-0005-060], for which, where the note is “Example 4, sixth table, Ki relative to that of AC-0005-002”, the “Ki (AC-0005-002)/Ki” value was determined as 195. Besides, the “Ki/Ki(EPO)” value (Example 4, sixth table, Ki relative to that of EPO) is 330.
Consider `CSCC[C@@H]1NC(=O)[C@H](CCCNC(=N)N)NC(=O)C(NC(=O)[C@H](CC(C)C)NC(=O)[C@H](Cc2ccc(O)cc2)NC(=O)[C@H](CC(N)=O)NC(C)=O)CCOCC(C(=O)N[C@@H](CCCCN)C(=O)N2CCC[C@H]2C(=O)NCCCCC(=O)NCCCCC(NC(=O)[C@@H]2CCCN2C(=O)[C@H](CCCCN)NC(=O)C2COCCC(NC(=O)[C@H](CC(C)C)NC(=O)[C@H](Cc3ccc(O)cc3)NC(=O)[C@H](CC(N)=O)NC(C)=O)C(=O)N[C@@H](CCCNC(=N)N)C(=O)N[C@@H](CCSC)C(=O)NCCC(=O)N[C@@H](Cc3c[nH]c4ccccc34)C(=O)N[C@@H](C(C)C)C(=O)N2)C(N)=O)NC(=O)[C@H](C(C)C)NC(=O)[C@H](Cc2c[nH]c3ccccc23)NC(=O)CCNC1=O` (stereo partly shown) [AC-0005-019], for which the Ki under setting [2] came out at 27 nM. In addition, where the note is “Example 4, second table”, the IC50 was determined as 57 nM.
On to `CSCC[C@@H]1NC(=O)[C@H](CCCNC(=N)N)NC(=O)C(NC(=O)[C@H](CC(C)C)NC(=O)[C@H](Cc2ccc(O)cc2)NC(=O)[C@H](CC(N)=O)NC(C)=O)CCOCC(C(=O)N[C@@H](CCCCNC(=N)N)C(=O)N2CCC[C@H]2C(=O)NC(CCCCNC(=O)CCCC(NC(=O)[C@@H]2CCCN2C(=O)[C@H](CCCCNC(=N)N)NC(=O)C2COCCC(NC(=O)[C@H](CC(C)C)NC(=O)[C@H](Cc3ccc(O)cc3)NC(=O)[C@H](CC(N)=O)NC(C)=O)C(=O)N[C@@H](CCCNC(=N)N)C(=O)N[C@@H](CCSC)C(=O)N3CCC[C@H]3C(=O)N[C@@H](Cc3ccc4ccccc4c3)C(=O)N[C@@H](C(C)C)C(=O)N2)C(=O)NCCC(=O)N[C@@H](CCCNC(=N)N)C(N)=O)C(=O)NCCC(=O)N[C@@H](CCCNC(=N)N)C(N)=O)NC(=O)[C@H](C(C)C)NC(=O)[C@H](Cc2ccc3ccccc3c2)NC(=O)[C@@H]2CCCN2C1=O` (stereo partly shown) [AC-0005-063], for which the Ki under setting [1] came out at 1 nM. The IC50 (Example 4, sixth table) was determined as 2.2 nM.
As for `CSCC[C@@H]1NC(=O)[C@H](CCCNC(=N)N)NC(=O)C(NC(=O)[C@H](CC(C)C)NC(=O)[C@H](Cc2ccc(O)cc2)NC(=O)[C@H](CC(N)=O)NC(C)=O)CCOCC(C(=O)N[C@@H](CCCCNC(=N)N)C(=O)N2CCC[C@H]2C(=O)NCCCCC(=O)NCCCCC(NC(=O)[C@@H]2CCCN2C(=O)[C@H](CCCCNC(=N)N)NC(=O)C2COCCC(NC(=O)[C@H](CC(C)C)NC(=O)[C@H](Cc3ccc(O)cc3)NC(=O)[C@H](CC(N)=O)NC(C)=O)C(=O)N[C@@H](CCCNC(=N)N)C(=O)N[C@@H](CCSC)C(=O)N3CCC[C@H]3C(=O)N[C@@H](Cc3ccc4ccccc4c3)C(=O)N[C@@H](C(C)C)C(=O)N2)C(N)=O)NC(=O)[C@H](C(C)C)NC(=O)[C@H](Cc2ccc3ccccc3c2)NC(=O)[C@@H]2CCCN2C1=O` (stereo partly shown) [AC-0005-055], the Ki by setting is: under setting [2], 4.8 nM; under setting [1], 6 nM; (Example 3, Cheng-Prusoff) 5.23 nM; (Example 4, sixth table) 6 nM. For the same compound, the IC50 reads like this: (Example 3) 11 nM; (Example 4, fifth table) 10.2 nM; (Example 4, sixth table) 12.6 nM.
For `CSCC[C@@H]1NC(=O)[C@H](CCCNC(=N)N)NC(=O)C(NC(=O)[C@H](CC(C)C)NC(=O)[C@H](Cc2ccc(O)cc2)NC(=O)[C@H](CC(N)=O)NC(C)=O)CCOCC(C(=O)N[C@@H](CCCCN)C(=O)N2CCC[C@H]2C(=O)NCCCCC(=O)NCCCCC(NC(=O)[C@@H]2CCCN2C(=O)[C@H](CCCCN)NC(=O)C2COCCC(NC(=O)[C@H](CC(C)C)NC(=O)[C@H](Cc3ccc(O)cc3)NC(=O)[C@H](CC(N)=O)NC(C)=O)C(=O)N[C@@H](CCCNC(=N)N)C(=O)N[C@@H](CCSC)C(=O)N[C@@H](Cc3ccccc3)C(=O)N[C@@H](Cc3c[nH]c4ccccc34)C(=O)N[C@@H](C(C)C)C(=O)N2)C(N)=O)NC(=O)[C@H](C(C)C)NC(=O)[C@H](Cc2c[nH]c3ccccc23)NC(=O)[C@H](Cc2ccccc2)NC1=O` (stereo partly shown) [AC-0005-022], the Ki under setting [2] is 17 nM. Where the note is “Example 4, fourth table”, the IC50 is 36 nM.
`CC[C@H](C)[C@@H]1NC(=O)[C@@H]2CCCN2C(=O)CNC(=O)[C@H](CCSC)NC(=O)[C@H](CCCNC(=N)N)NC(=O)[C@@H](NC(=O)[C@H](CC(C)C)NC(=O)[C@H](Cc2ccc(O)cc2)NC(=O)[C@H](CC(N)=O)NC(C)=O)CSSC[C@@H](C(=O)N[C@@H](CCCCN)C(=O)N2CCC[C@H]2C(=O)NCCCCC(=O)NCCCCC(NC(=O)[C@@H]2CCCN2C(=O)[C@H](CCCCN)NC(=O)[C@@H]2CSSC[C@H](NC(=O)[C@H](CC(C)C)NC(=O)[C@H](Cc3ccc(O)cc3)NC(=O)[C@H](CC(N)=O)NC(C)=O)C(=O)N[C@@H](CCCNC(=N)N)C(=O)N[C@@H](CCSC)C(=O)NCC(=O)N3CCC[C@H]3C(=O)N[C@@H]([C@@H](C)CC)C(=O)N[C@@H]([C@@H](C)O)C(=O)N[C@@H](Cc3c[nH]c4ccccc34)C(=O)N[C@@H](C(C)C)C(=O)N2)C(N)=O)NC(=O)[C@H](C(C)C)NC(=O)[C@H](Cc2c[nH]c3ccccc23)NC(=O)[C@H]([C@@H](C)O)NC1=O` (stereo partly shown) [AC-0005-003] (I: Ac-NYLCRMGPITWVCKP[ξK]-NH2 / II: Ac-NYLCRMGPITWVCKP[Ava]; disulfide I:4-I:13, II:4-II:13; amide I:16-II:C): the Ki under setting [2] stood at 48 nM.
In the case of `CSCC[C@@H]1NC(=O)[C@H](CCCNC(=N)N)NC(=O)C(NC(=O)[C@H](CC(C)C)NC(=O)[C@H](Cc2ccc(O)cc2)NC(=O)[C@H](CC(N)=O)NC(C)=O)CCOCC(C(=O)N[C@@H](CCCCN)C(=O)N2CCC[C@H]2C(=O)NCCCCC(=O)NCCCCC(NC(=O)[C@@H]2CCCN2C(=O)[C@H](CCCCN)NC(=O)C2COCCC(NC(=O)[C@H](CC(C)C)NC(=O)[C@H](Cc3ccc(O)cc3)NC(=O)[C@H](CC(N)=O)NC(C)=O)C(=O)N[C@@H](CCCNC(=N)N)C(=O)N[C@@H](CCSC)C(=O)N[C@@H](CCc3ccccc3)C(=O)N[C@@H](Cc3c[nH]c4ccccc34)C(=O)N[C@@H](C(C)C)C(=O)N2)C(N)=O)NC(=O)[C@H](C(C)C)NC(=O)[C@H](Cc2c[nH]c3ccccc23)NC(=O)[C@H](CCc2ccccc2)NC1=O` (stereo partly shown) [AC-0005-023], under setting [2], the Ki was determined as 17 nM. In addition, the IC50 (Example 4, fourth table) is 35 nM.
As to `CC[C@H](C)[C@@H]1NC(=O)[C@@H]2CCCN2C(=O)CNC(=O)[C@H](CCSC)NC(=O)[C@H](Cc2c[nH]cn2)NC(=O)[C@@H](NC(=O)[C@H](C)NC(=O)[C@H](Cc2ccc(O)cc2)NC(=O)[C@H](CC(C)C)NC(C)=O)CSSC[C@@H](C(=O)NCCCCC(=O)NCCCCC(NC(=O)[C@@H]2CSSC[C@H](NC(=O)[C@H](C)NC(=O)[C@H](Cc3ccc(O)cc3)NC(=O)[C@H](CC(C)C)NC(C)=O)C(=O)N[C@@H](Cc3c[nH]cn3)C(=O)N[C@@H](CCSC)C(=O)NCC(=O)N3CCC[C@H]3C(=O)N[C@@H]([C@@H](C)CC)C(=O)N[C@@H]([C@@H](C)O)C(=O)N[C@@H](Cc3cccc4ccccc34)C(=O)N[C@@H](C(C)C)C(=O)N2)C(N)=O)NC(=O)[C@H](C(C)C)NC(=O)[C@H](Cc2cccc3ccccc23)NC(=O)[C@H]([C@@H](C)O)NC1=O` (stereo partly shown) [AC-0005-006] (I: Ac-LYACHMGPIT[1Nal]VC[ξK]-NH2 / II: Ac-LYACHMGPIT[1Nal]VC[Ava]; disulfide I:4-I:13, II:4-II:13; amide I:14-II:C), the IC50 (Example 4, first table) was greater than 10000 nM.
Regarding `CSCC[C@@H]1NC(=O)[C@H](CCCNC(=N)N)NC(=O)C(NC(=O)[C@H](CC(C)C)NC(=O)[C@H](Cc2ccc(O)cc2)NC(=O)[C@H](CC(N)=O)NC(C)=O)CCOCC(C(=O)N[C@@H](CCCCN)C(=O)N2CCC[C@H]2C(=O)NCCCCC(=O)NCCCCC(NC(=O)[C@@H]2CCCN2C(=O)[C@H](CCCCN)NC(=O)C2COCCC(NC(=O)[C@H](CC(C)C)NC(=O)[C@H](Cc3ccc(O)cc3)NC(=O)[C@H](CC(N)=O)NC(C)=O)C(=O)N[C@@H](CCCNC(=N)N)C(=O)N[C@@H](CCSC)C(=O)NCC(=O)N[C@@H](Cc3c[nH]c4ccccc34)C(=O)N[C@@H](C(C)C)C(=O)N2)C(N)=O)NC(=O)[C@H](C(C)C)NC(=O)[C@H](Cc2c[nH]c3ccccc23)NC(=O)CNC1=O` (stereo partly shown) [AC-0005-018], the Ki reads like this: under setting [2], 22 nM; (Example 4, fourth table) 33 nM. Also, the IC50 runs as follows: (Example 4, fourth table) 70 nM; (Example 4, second table) 47 nM.

The term Ki denotes a measure of affinity in units of concentration, obtained from inhibition or displacement. The term IC50 denotes the concentration that gives 50% inhibition.

(Values after patent US9422338B2 (EpoDose LLC, priority 2011, dated 2016).)
